Test system: gastric tone (fundus of the stomach)
Assay: Gastric tone measured by an electronic barostat in conscious dogs
Type: in vivo, dog
Conditions: mean maximal change in intragastric volume on relaxation of the fundus, 1 hour after S.C. administration, 0.63 mg/kg, conscious female beagle dogs, barostat at 2 mmHg
Protocol: Gastric tone cannot be measured by manometric methods. Therefore an electronic barostat was used. This allows the study of the physiological pattern and regulation of gastric tone in conscious dogs and the influence of test-compounds on this tone.
The barostat consists of an air injection system which is connected by a double-lumen 14-French polyvinyl tube to an ultrathin flaccid polyethylene bag (maximal volume: ±700 ml). Variations in gastric tone were measured by recording changes in the volume of air within an intragastric bag, maintained at a constant pressure. The barostat maintains a constant pressure (preselected) within a flaccid air-filled bag introduced into the stomach, changing the volume of air within the bag by an electronic feedback system.
Thus, the barostat measures gastric motor activity (contraction or relaxation) as changes in intragastric volume (decrease or increase resp.) at a constant intragastric pressure. The barostat consists of a strain gauge linked by an electronic relay to an air injection-aspiration system Both the strain gauge and the injection system are connected by means of double-lumen polyvinyl tube to an ultrathin polyethylene bag. A dial in the barostat allows selection of the pressure level to be maintained within the intragastric bag.
Female beagle dogs, weighing 7-17 kg, were trained to stand quietly in Pavlov frames. They were implanted with a gastric cannula under general anaesthesia and aseptic precautions. After a median laparotomy, an incision was made through the gastric wall in longitudinal direction between the greater and the lesser curve, 2 cm above the nerves of Latarjet. The cannula was secured to the gastric wall by means of a double purse string suture and brought out via a stub wound at the left quadrant of the hypochondrium Dogs were allowed a recovery period of two weeks.
At the beginning of the experiment, the cannula was opened in order to remove any gastric juice or food remnants. If necessary, the stomach was cleansed with 40 to 50 ml lukewarm water. […]

Point of comparison: `c1ccc(CN2CCCC(c3nc4ncccc4[nH]3)CC2)cc1` (single isomer, unassigned; (+)) [Compound 81, (+)-2-[hexahydro-1-(phenylmethyl)-1H-azepin-4-yl]-1H-imidazo[4,5-b]pyridine], “Maximum change in volume (mean)” value 183 mL. Against it:
- c1ccc(CN2CCCC(c3nc4ncccc4[nH]3)CC2)cc1 (racemic) [Compound 69, (±)-2-[hexahydro-1-(phenylmethyl)-1H-azepin-4-yl]-1H-imidazo[4,5-b]pyridine] — lower, 87 mL
- c1ccc(CN2CCCC(c3nc4ncccc4[nH]3)CC2)cc1 (single isomer, unassigned; (-)) [Compound 80, (−)-2-[hexahydro-1-(phenylmethyl)-1H-azepin-4-yl]-1H-imidazo[4,5-b]pyridine] — lower, 55 mL
